Patent publication US9422306B2, “Artemisinin compounds and synthesis and use thereof” (University of Washington Through Its Center for …, priority 2012, dated 2016)
Where two headings read alike, the source gives them in different places.

Experiments:
MDA-MB-231 cells = assay: MTT cell viability assay, MDA-MB-231 breast cancer cells; format: cell-based; details: for IC50: read-out: MDA MB 231 IC50; for Selectivity MDA MB 231: values match MCF-10A IC50 / MDA MB 231 IC50, formula not given
Description: (§1) In vitro toxicity of the compounds described herein were tested on two breast cancer cell lines, MDA-MB-231 and BT-474. These cell lines represent triple negative and HER2-positive breast cancers, respectively. BT474 cell and MDA-MB-231 cells were maintained in DMEM media supplemented with 10% v/v FBS. On reaching confluency (1×10^6 cells/mL in a 25 mL flask), 1×10^6 cells were seeded in 25 mL of fresh supplemented media. The cells were incubated under humidified air containing 5% CO2 at 37° C. Cell density was kept below 1×10^6 cells/mL to ensure exponential growth and to avoid differentiation. Cells were only used between passages 5 and 15 to prevent cell differentiation.
(§2) A standard MTT assay was used to determine the cell viability at 48 hr after an artemisinin derivative was added to the culture medium. Cell viability was above 95% for all experiments. The viable cell count was based on trypan blue exclusion from the cells and was performed in a hemocytometer using a light microscope. To 50 μL of cells was added 20 μL of trypan blue 0.4% solution and 30 μL D-Hanks solution was counted. During experiments cells were exposed to drug stock solutions which were made up in 100% DMSO and the final solvent concentration was 1% v/v in each incubation. Each concentration in every experiment was carried out in triplicate.
(§3) BT474 (2000 cells/100 μL) or MDA-MB-231 cells (7500 cells/100 μL) were seeded on a 96 well plate respectively, and incubated for 24 hr at 37° C. The medium was removed, and replaced it with 200 μL of the complete medium containing artemisinin derivatives. The cells were incubated for 48 hr at 37° C., the medium was removed, and replaced it with 100 μL of fresh complete medium. 10 μL of […] MTT stock solution (D-Hanks) was added to each well. After incubating for 3 hr at 37° C., formazan crystals were solubilized in 50 μL of DMSO and absorbance was measured at 570 nm with BIO-RAD model 680 microplate reader. All data were analyzed using Microsoft Excel. IC50 values were determined with Graphpad Prism 5.

BT474 cells = assay: MTT cell viability assay, BT474 breast cancer cells; format: cell-based; details: for IC50: read-out: BT474 IC50; for Selectivity BT474: values match MCF-10A IC50 / BT474 IC50, formula not given
Description: as §1, §2, §3

MCF-10A = MCF-10A IC50; format: cell-based
NCI 60 cell lines = details: panel of NCI 60 cell lines; cited from earlier work
[1] = system: PCa cell lines DU 145, PC-3, C4-2, and LNCaP; assay: Cytotoxicity against a panel of four PCa cell lines; format: cell-based; details: DU 145, PC-3, C4-2, LNCaP
Description: The cytotoxicity of artemisinin dimers, dimer-2Py, was evaluated against a panel of four PCa cell lines, DU 145, PC-3, C4-2, and LNCaP.

[2] = Homo sapiens, MDA-MB-231, MTT, 48 hr incubation
[3] = Homo sapiens, BT-474, MTT, 48 hr incubation

Row | SMILES | IC50 (MDA-MB-231 cells; [2]) [µM] | times less potent than artemisinin dimer succinate (MDA-MB-231 cells; MDA-MB-231) [times] | Selectivity MDA MB 231 (MDA-MB-231 cells) | IC50 (BT474 cells; [3]) [µM] | Selectivity BT474 (BT474 cells) | IC50 (MCF-10A; Homo sapiens, MCF-10A) [µM] | IC50 (MDA-MB-231 cells; MTT, 48 hr incubation) [µM] | times more potent than artemisinin monomers such as artesunate (NCI 60 cell lines) | IC50 (BT474 cells; MTT, 48 hr incubation) [µM] | IC50 (MCF-10A) [µM] | IC50 (MDA-MB-231 cells; Homo sapiens, MDA-MB-231, 48 h) [µM] | IC50 (BT474 cells; Homo sapiens, BT-474, 48 h) [µM] | cytotoxicity [1]
1 | COC(=O)CNC(=O)C(CC[C@H]1O[C@@H]2OC3(C)CCC4[C@H](C)CCC([C@H]1C)[C@]42OO3)N(CCC[C@H]1O[C@@H]2OC3(C)CCC4[C@H](C)CCC([C@H]1C)[C@]42OO3)c1ccc([N+](=O)[O-])cc1 (stereo partly shown) [Compound 6f] | 1.2 | 5 | 39 | 0.096 | 490 | 47 | – | – | – | – | – | – | –
2 | COC(=O)CNC(=O)C(CC[C@H]1O[C@@H]2OC3(C)CCC4[C@H](C)CCC([C@H]1C)[C@]42OO3)N(CCC[C@H]1O[C@@H]2OC3(C)CCC4[C@H](C)CCC([C@H]1C)[C@]42OO3)C(=O)c1ccc(N(C)C)cc1 (stereo partly shown) [Compound 6d] | 12 | – | 1.3 | 0.88 | 17 | 15 | – | – | – | – | – | – | –
3 | COC(=O)CNC(=O)C(CC[C@H]1O[C@@H]2OC3(C)CCC4[C@H](C)CCC([C@H]1C)[C@]42OO3)N(CCC[C@H]1O[C@@H]2OC3(C)CCC4[C@H](C)CCC([C@H]1C)[C@]42OO3)C(=O)c1cnccn1 (stereo partly shown) [Compound 6e] | 26 | – | 0.96 | 1.7 | 15 | 25 | – | – | – | – | – | – | –
4 | C[C@H]1[C@@H](CC(COC(=O)CCC(=O)O)C[C@H]2O[C@@H]3O[C@@]4(C)CC[C@H]5[C@H](C)CC[C@@H]([C@H]2C)[C@@]35OO4)O[C@@H]2O[C@@]3(C)CC[C@H]4[C@H](C)CC[C@@H]1[C@@]24OO3 (stereo partly shown) [Artemisinin dimer succinate, reference compound] | – | – | 88 | – | 210 | – | 0.24 | up to 500 times | 0.1 | 21 | – | – | –
5 | C[C@H]1[C@H](OC(=O)CCC(=O)O)O[C@@H]2O[C@@]3(C)CC[C@H]4[C@H](C)CC[C@@H]1[C@@]24OO3 [Artesunate, reference compound] | – | – | 0.46 | – | 2.7 | 21 | – | – | – | – | 46 | 7.8 | –
6 | COC(=O)CNC(=O)C(CC[C@H]1O[C@@H]2OC3(C)CCC4[C@H](C)CCC([C@H]1C)[C@]42OO3)N(CCC[C@H]1O[C@@H]2OC3(C)CCC4[C@H](C)CCC([C@H]1C)[C@]42OO3)C(=O)c1cccc(OC)c1OC (stereo partly shown) [Compound 6c] | 12 | – | 0.48 | 5.8 | 0.98 | 5.7 | – | – | – | – | – | – | –
7 | COC(=O)CNC(=O)C(CC[C@H]1O[C@@H]2OC3(C)CCC4[C@H](C)CCC([C@H]1C)[C@]42OO3)N(C(=O)c1ccccc1)C(C)C (stereo partly shown) [Compound 7] | > 100 | – | – | > 100 | – | > 100 | – | – | – | – | – | – | –
8 | C[C@H]1[C@@H](O)O[C@@H]2O[C@@]3(C)CC[C@H]4[C@H](C)CC[C@@H]1[C@@]24OO3 [dihydroartemisinin] | – | – | – | – | – | – | – | – | – | – | – | – | negligible activity
9 | COC(=O)CNC(=O)C(CC[C@H]1O[C@@H]2OC3(C)CCC4[C@H](C)CCC([C@H]1C)[C@]42OO3)N(CCC[C@H]1O[C@@H]2OC3(C)CCC4[C@H](C)CCC([C@H]1C)[C@]42OO3)C(=O)C(F)(F)F (stereo partly shown) [Compound 6a] | 19 | – | 0.24 | 6.6 | 0.70 | 4.6 | – | – | – | – | – | – | –
10 | COC(=O)CNC(=O)C(CC[C@H]1O[C@@H]2OC3(C)CCC4[C@H](C)CCC([C@H]1C)[C@]42OO3)N(CCC[C@H]1O[C@@H]2OC3(C)CCC4[C@H](C)CCC([C@H]1C)[C@]42OO3)C(=O)c1ccccc1 (stereo partly shown) [Compound 6b] | 11 | – | 0.45 | 0.79 | 6.3 | 5 | – | – | – | – | – | – | –
